In assay [1] the test system is methane emissions by sheep. Description: In vivo test for methane inhibition: methane emissions in chambers. Particulars: for CH4, l/kg BW / CH4, l/day / CH4, l/kg DMI: average of 3 consecutive days; for CH4, l/kg BW: control 0.59; for CH4, l/day: control 25.5; for CH4, l/kg DMI: control 31.5; for reduction of methane emissions: vs control. The text has this:
(§1) The experimental design consisted of a cross-over design with 2 sheep per treatment in each period. The trial consisted in 3 consecutive periods of: 14 days of adaptation to the dose plus three consecutive days of methane measurements in chambers. This 14 days adaptation phase was established as the period necessary for wash out between different doses assayed in consecutive periods. During the last two days of methane measurements in chambers rumen contents samples were collected two hours after the morning feeding, sub sampled and immediately frozen prior DNA extraction and determination of volatile fatty acids and ammonia nitrogen concentration. Experimental animals were randomly allocated in three sub-groups of 2 animals and were assigned one of the three treatments (control, dose 1 and dose 2). The 3 sub-groups started the adaptation period with a gap of three days so they had the same number of adaptation days prior to methane measurement in the chambers. Each animal was held in cages with constant access to fresh water. The diet provided to the animals consisted of alfalfa hay chopped at 15 to 20 cm and concentrate in a proportion 1:1 at approximately 1.1 times the energy requirements maintenance level (Prieto et al, 1990) plus mineral-vitamin supplement. Fresh matter intake was monitored daily for each animal throughout the trial. The diet was provided to animals in two equal meals at 9.00 h and 14.00 h.
The additive was provided twice a day through the ruminal cannula at the same time as the diet. The corresponding amount to each dose was added into 10 grams of grounded concentrate and wrapped in cellulose paper immediately before it was placed in the rumen. In order to avoid the volatility of the active molecule, both additives were kept in a cold room at 4° C. where the daily process of dispensing it in the cellulose bags was carried out.
The doses were 50 (dose 1) and 500 (dose 2) mg/animal per day. The higher dose was reached after 3 days of gradual increases (50, 200 and 500 mg), so the whole adaptation period was consequently extended for 3 more days.
On day 14 animals were introduced in the chambers for methane measurements for 3 consecutive days. Each chamber measured 1.8 m wide×1.8 m deep×1.5 m tall. Chamber air temperature was maintained between 15 and 20° C. Within each chamber, the animals were individually restrained in the same cages as in the adaptation period. Interruptions occurred daily at 8.30 h, when the chamber floor was cleaned, and the animals were fed. These interruptions had little impact on the daily emissions because fluxes were calculated three times per day and then averaged to derive the 23-hour emission value. Airflow and concentration of methane was measured for the intake and exhaust ducts of each chamber. Air velocity was continuously monitored over the day in each intake and exhaust duct for each chamber. The air stream in each of the 3 ducts (chamber 1, chamber 2 and background) was sub-sampled, and methane concentration was measured continuously using a gas analyzer ADM MGA3000 (Spurling works, Herts, UK). It took 8 min. to sequentially sample the airflow in all intake and exhaust ducts in both chambers (3 min. in chambers 1 and 2, 2 min for background). In summary, the flux of methane for each chamber was calculated for each of the 3-day periods of measurement from the difference of fresh-air input and chamber exhaust methane concentrations and mean air velocities.
Individual methane emissions, VFA profiles, ratio of acetate to propionate, ammonia N concentration, and log10 transformations of concentration of total bacteria, total protozoa and methanogenic archaea were analyzed for the following effects: additive dose, day of measurement, and their interaction using a repeated measures analysis of variance under the cross-over design arrangement of the experiment. The standard error of the mean (SEM) was computed for each analysis. […]

The subject of a further assay is total bacteria (16SrRNA). Description: In vivo test: qPCR of total bacteria in rumen contents. Particulars: rumen of sheep; for Total bacteria concentration: control 1.19 × 10^9; for Total bacteria, log10: control 9.03.
Text: as §1
(§2) Samples of rumen contents were freeze-dried and thoroughly mixed by physical disruption using a bead beater (Mini-bead Beater; BioSpec Products, Bartlesville, Okla., USA) before DNA extraction, which was performed from approximately 50 mg sample using the QIAamp® DNA Stool Mini Kit (Qiagen Ltd, West Sussex, UK) following the manufacturer's instructions with the modification that a higher temperature (95° C.) was used for lysis incubation. DNA samples were used as templates for quantitative real-time PCR (qPCR) amplification. The numbers of total bacteria, total protozoa and total methanogenic archaea were quantified by Real Time—PCR (qPCR).
(§3) Different primer sets were used to amplify 16S rRNA gene-targeted total bacteria (Maeda et al. FEMS Inmunology and Medical Microbiology 39, 81-86, 2003), and protozoa (Sylvester et al. Journal Dairy Science. 88, 2083-2095 2005). […] The amplification efficiency was evaluated for each pair of primers with the following program: 5 min cycle at 95° C., 40 cycles at 95° C. for 15 s, 60° C. for 30 s, 72° C. for 55 s and, 75° C. during 6 s for fluorescent emission measures. The melting curve was built by increasing temperature from 55° C. to 95° C. and reading were taken every 5° C. […] The absolute amount of bacteria, protozoa and methanogenic archaea expressed as the number of DNA copies, was determined by using standards. […]
(In general: Real-time PCR tracks product formation cycle by cycle.)

The subject of a further assay is protozoa (18SrRNA). In words: In vivo test: qPCR of total protozoa in rumen contents. As to conditions: rumen of sheep; for Total protozoa concentration: control 2.38 × 10^6; for Total protozoa, log10: control 6.35.
Text: as §1, §2, §3

Another assay concerns methanogenic archaea. In words: In vivo test: qPCR of methanogenic archaea in rumen contents. As to conditions: rumen of sheep; for Methanogenic archaea, log10: control 3.59; for Methanogenic archaea concentration: control 5.60 × 10^3.
Text: as §1, §2, §3

Marks after values point to notes of the source that are not given here.

For `CCOC(=O)CCO[N+](=O)[O-]` [Ethyl-3-nitrooxy propionate], in assay [1] (Dose 1 (50 mg/animal per day)), the “CH4, l/kg BW” value was 0.51^ab l/kg BW; the “CH4, l/day” value is reported as 22.3^ab l/day; the “CH4, l/kg DMI” value was 26.0^ab l/kg DMI. Also, in assay [1] (Dose 2 (500 mg/animal per day)), the “CH4, l/kg BW” value is 0.42^b l/kg BW; the “CH4, l/day” value was 18^b l/day; the “CH4, l/kg DMI” value is recorded as 22.2^b l/kg DMI. The “reduction of methane emissions” value in assay [1] (dose 1 (50 mg/animal per day)) worked out at 18%. In addition, in assay [1] (dose 2 (500 mg/animal per day), P<0.05), the “reduction of methane emissions” value was 29%. Further, the “inhibition of methanogenesis (conclusion in words)” value in assay [1] (sheep, 50 and 500 mg/animal per day) is on record as “strong inhibitor of methanogenesis”. In the assay with total bacteria (16SrRNA) (Dose 1 (50 mg/animal per day)), the Total bacteria concentration is recorded as 1.43 × 10^9 copy gene numbers/g fresh matter and the “Total bacteria, log10” value was 9.08 log10. For the same compound, in the assay with total bacteria (16SrRNA) (Dose 2 (500 mg/animal per day)), the Total bacteria concentration is 1.63 × 10^9 copy gene numbers/g fresh matter and the “Total bacteria, log10” value was determined as 9.18 log10. Also, in the assay with protozoa (18SrRNA) (Dose 1 (50 mg/animal per day)), the Total protozoa concentration is recorded as 2.08 × 10^6 copy gene numbers/g fresh matter and the “Total protozoa, log10” value turned out to be 6.28 log10. Moreover, in the assay on protozoa (18SrRNA) (Dose 2 (500 mg/animal per day)), the Total protozoa concentration was 2.77 × 10^6 copy gene numbers/g fresh matter and the “Total protozoa, log10” value is recorded as 6.43 log10. For the same compound, in the assay with methanogenic archaea (Dose 1 (50 mg/animal per day)), the “Methanogenic archaea, log10” value stood at 3.57 log10 and the Methanogenic archaea concentration is recorded as 5.43 × 10^3 copy gene numbers/g fresh matter. Moreover, in the assay with methanogenic archaea (Dose 2 (500 mg/animal per day)), the “Methanogenic archaea, log10” value came out at 3.45 log10 and the Methanogenic archaea concentration is 4.34 × 10^3 copy gene numbers/g fresh matter.

(Values after US9365489B2, “Nitrooxy alkanoic acids and derivatives thereof in feed for reducing methane emission in ruminants, and/or to improve ruminant performance” (priority 2009, dated 2016).)
